Results reported in US10076508B2, “Pharmaceutical compositions for inhibiting antibiotic-resistant microorganisms and uses thereof” (Peptide Cham Biotech Co., Ltd., priority 2015, dated 2018).

Assays:
[1] = test system: Staphylococcus aureus; assay: Antibiotics activity test (bacteria concentration OD630 over time); type: cell-based; conditions: 1 μg/ml Fmoc-Ala-OPfp in culture medium, 8 hours after bacterial inoculation, 37° C.; compared with ampicillin and vancomycin
Description: The bacteria were cultured for antibiotics activity test. (FIG. 3) The cultured cells were added with specific concentration of Fmoc-Ala-OPfp, Ampicillin and Vancomycin as experimental group, and the cultured cells were not added with any drugs as control group, and the same amount of Staphylococcus aureus colonies were added then cultured in an incubator under 37° C. The different time of bacteria concentrations (OD630) were tested to investigate the antibiotic inhibitory effect of Fmoc-Ala-OPfp, Ampicillin and Vancomycin.
Only a small amount (1 μg/ml) of Fmoc-Ala-OPfp was added in the culture medium.

[2] = test system: human red blood cells; assay: Hemolytic test; type: cell-based; conditions: at 100 μg/ml; human red blood cells 2% (V/V), 37° C., 1 hour, O.D. 490 nm
Description: Fresh human red blood cells were washed by 0.9% physiological saline for three times, then were dissolved into 2% (V/V) physiological saline, and 50 μL red blood cells suspension and 50 μL of the compound (10, 50 and 100 μg/ml of antibiotic Fmoc-Ala-OPfp) and Triton X-100 was added into the 96-well tray, wherein the final concentration of red blood cells was 2% (V/V). The sample was slightly shaking in the incubator under 37° C. for 1 hour and centrifuged with 2000 g for 30 minutes. 50 μL sample suspension was dropped into a new 96-well tray and the O.D. 490 nm absorbance was measured. The physiological saline and Triton X-100 was negative control group and positive control group, respectively.

[3] = test system: Mammalian cell line L292 and MEF cell lines; assay: MTT assay cytotoxicity (survival analysis); type: cell-based, human; conditions: 100 μg/mL, 24 hours, 570 nm absorbance
Description: Mammalian cell line L292 and MEF cell lines were cultured in Dulbecco's modified Eagle culture medium, wherein the culture medium was added with 100 μg/mL streptomycin, 100 U/mL penicillin and 10% (v/v) fetal bovine serum, and then the cell lines were cultured the in 5% CO2 containing humidified incubator under 37° C.
MTT assay was used for investigating the cytotoxicity of compound on mammalian cells. The cells were cultured at 96-well tray with 100 μL culture medium for 24 hours after sterilization, then the cells were cultured in the diluted culture medium for 24 hours. 3-(4,5-dimethylthiazol-2yl)-2,5-diphenyltetrazolium bromide (MTT) was added into each well of 96-well tray and incubated for 4 hours. The cell suspension was removed and 100 μL dimethyl sulfoxide was added for dissolving all the precipitate. Enzyme immunoassay instrument was used for measure the 570 nm absorbance.

C[C@H](NC(=O)OCC1c2ccccc2-c2ccccc21)C(=O)Oc1c(F)c(F)c(F)c(F)c1F [Fmoc-Ala-OPfp, N-(9-fluorenylmethoxycarbonyl)-L-alanine pentafluorophenyl]
antibiotic effect (inhibition of bacteria growth, OD630) [1]: equivalent to 5.3 μg/ml of ampicillin and 5.3 μg/ml vancomycin | hemolytic activity [2]: low hemolytic activity | cell toxicity on MTT assay [3]: 10-20%
